Columns and labels:
[1] = tested on: scutella of wheat cv. Bobwhite MPB26RH and cv. Clearfield Janz; test: Basal tolerance to IMAZAMOX at callus induction stage; assay type: cell-based, Triticum aestivum
Procedure: A series of experiments were performed to determine optimal selection conditions for regenerating AHAS edited wheat plants. These experiments were based on testing the basal tolerance to IMAZAMOX™ of the donor wheat line cv. Bobwhite MPB26RH(S653/S653 genotype) at the callus induction, plant regeneration and rooting stages of an established wheat transformation system. Similar experiments were performed to determine the basal tolerance and resistance of cv. Clearfield Janz genotypes carrying the different doses of the S653N mutation; i.e., plants with N653/N653 and S653/S653 genotypes.
The basal tolerance of the donor wheat line cv. Bobwhite MPB26RH and basal resistance of cv. Clearfield Janz (N653/N653) genotype to IMAZAMOX® at the callus induction stage was determined as follows: Scutella of immature zygotic embryos from each wheat line were isolated as described previously and placed in 10 cm PETRI™ dishes containing CIM medium supplemented with 0, 50, 100, 200, 300, 400 and 500 nM IMAZAMOX® respectively. Twenty scutella were placed in each PETRI™ dish. A total of 60 scutella from each of the donor wheat line cv. Bobwhite MPB26RH and cv. […] After incubation at 24° C. in the dark for 4 weeks, the amount of somatic embryogenic callus formation (SEC) at each IMAZAMOX® concentration was recorded. […]

[2] = tested on: wheat cv. Bobwhite MPB26RH and cv. Clearfield Janz; test: Basal tolerance to IMAZAMOX at plant regeneration stage; assay type: in vivo, Triticum aestivum
Procedure: The basal tolerance of the donor wheat line cv. Bobwhite MPB26RH to IMAZAMOX® at the plant regeneration stage was determined as follows: Scutella of immature zygotic embryos from the donor wheat line were isolated as described previously and placed in 10 cm PETRI™ dishes containing CIM medium. Somatic embryogenic callus was allowed to form by incubating at 24° C. in the dark for 4 weeks. The SEC was transferred to 10 cm PETRI™ dishes containing DRM medium supplemented with 0, 100, 200, 300, 400, 500 and 1000 nM IMAZAMOX® respectively. Twenty CIM were placed in each PETRI™ dish. A total of 60 CIM were tested for basal tolerance response at each IMAZAMOX® concentration. After incubation for 2 weeks at 24° C. under a 16/8 (light/dark) hour photoperiod in a growth room, the regeneration response was recorded.
The basal tolerance of the cv. Clearfield Janz (S653/S653) genotype and basal resistance of the cv. Clearfield Janz (N653/N653) genotype to IMAZAMOX® at the plant regeneration stage was determined using a modified approach, as cv. […] Seed for each cv. Clearfield Janz genotype was germinated using the aseptic approach described above for producing wheat mesophyll protoplasts. […] After incubation for 3 weeks at 24° C. under a 16/8 (light/dark) hour photoperiod in a growth room, the growth response was recorded. […]

[3] = tested on: scutella of wheat cv. Bobwhite MPB26RH; test: Basal tolerance to sulfometuron methyl at callus induction stage; assay type: cell-based, Triticum aestivum; conditions: 100 nM, 4 weeks
Procedure: A series of experiments were performed to determine optimal selection conditions for regenerating wheat plants expressing the AHAS(P197S) mutation conferring tolerance to sulfonylurea class herbicides. These experiments were based on testing the basal tolerance of the wild-type donor wheat line cv. Bobwhite MPB26RH (P197/P197 genotype, which confers susceptibility to sulfonylureas) at the callus induction, plant regeneration and rooting stages of an established wheat transformation system. Similar experiments were performed to determine the basal tolerance of transgenic cv. Bobwhite MPB26RH events that had randomly integrated T-DNA expressing the AHAS(P197) mutation, which confers tolerance to sulfonylurea selection agents.
The basal tolerance of the wild-type donor wheat line to sulfometuron methyl at the callus induction stage was determined as follows: Scutella of immature zygotic embryos were isolated, as previously described, and placed in 10 cm PETRI™ dishes containing CIM medium supplemented with 0, 100, 500, 1000, 1500 and 2000 nM sulfometuron methyl, respectively. Twenty scutella were placed in each PETRI™ dish. A total of 60 scutella were tested at each sulfometuron methyl concentration. After incubation at 24° C. in the dark for 4 weeks, the amount of somatic embryogenic callus formation (SEC) at each sulfometuron methyl concentration was recorded. […]

[4] = tested on: wheat cv. Bobwhite MPB26RH; test: Basal tolerance to sulfometuron methyl at plant regeneration stage; assay type: in vivo, Triticum aestivum; conditions: wild-type cv. Bobwhite MPB26RH; 2000 nM; 2 weeks
Procedure: The basal tolerance of the wild-type donor wheat line to sulfometuron methyl at the plant regeneration stage was determined as follows: Scutella of immature zygotic embryos from the donor wheat line were isolated and placed in 10 cm PETRI™ dishes containing CIM medium. Somatic embryogenic callus was allowed to form by incubating at 24° C. in the dark for 4 weeks. The SEC was transferred to 10 cm PETRI™ dishes containing DRM medium supplemented with 0, 100, 500, 1000, 1500, 2000, 2500 and 3000 nM sulfometuron methyl, respectively. Twenty CIM were placed in each PETRI™ dish. A total of 60 CIM were tested for basal tolerance response at each sulfometuron methyl concentration. After incubation for 2 weeks at 24° C. under a 16/8 (light/dark) hour photoperiod in a growth room, the regeneration response was recorded.

[5] = tested on: wheat cv. Bobwhite MPB26RH, wild-type and AHAS(P197S) transgenic events; test: Basal tolerance to sulfometuron methyl at plant rooting stage; assay type: in vivo, Triticum aestivum; conditions: wild-type donor wheat line; concentrations higher than 400 nM; 3 weeks
Procedure: The basal tolerance of the wild-type donor wheat line to sulfometuron methyl at the plant rooting stage was determined as follows: Scutella of immature zygotic embryos were isolated and placed in 10 cm PETRI™ dishes containing CIM medium. Somatic embryogenic callus was allowed to form by incubating at 24° C. in the dark for 4 weeks. The SEC was transferred to 10 cm PETRI™ dishes containing DRM medium and incubated for 2 weeks at 24° C. under a 16/8 (light/dark) hour photoperiod to allow plant regeneration to take place. Regenerated plants were transferred to 10 cm PETRI™ dishes containing RM medium supplemented with 0, 100, 200, 250, 300, 400, 500, 1000 and 2000 nM sulfometuron methyl, respectively. Ten regenerated plants were placed in each PETRI™ dish. […] After incubation for 3 weeks at 24° C. under a 16/8 (light/dark) hour photoperiod in a growth room, the root formation response was recorded.
The basal tolerance of transgenic wheat events with randomly integrated, low-copy (≤3) T-DNA expressing the AHAS(P197S) mutation to sulfometuron methyl at the plant rooting stage was determined as follows: Four independent transgenic events were randomly selected and multiplied in vitro by sub-culturing on multiplication medium. […] After incubation for 2 weeks at 24° C. under a 16/8 (light/dark) hour photoperiod in a growth room, the root formation response was recorded.

Compound	reduction of SEC formation compared to untreated samples ([1]; cv. Bobwhite MPB26RH, 100 nM, 4 weeks)	callus formation relative to the untreated control ([1]; cv. Clearfield Janz (N653/N653), any concentration tested (50-500 nM))	reduction of plant regeneration compared to untreated samples ([2]; cv. Bobwhite MPB26RH, 200 nM, 2 weeks)	concentration that had to be exceeded before plant growth was strongly suppressed ([2]; cv. Clearfield Janz (N653/N653), 3 weeks)	reduction of SEC formation compared to untreated samples [3]	reduction of plant regeneration compared to untreated samples [4]	root formation compared to untreated samples [5]
COCc1cnc(C2=NC(C)(C(C)C)C(=O)N2)c(C(=O)O)c1 (stereo not shown) [IMAZAMOX]	about 70%	unaffected	about 80%	exceeded 2,000 nM	–	–	–
COC(=O)c1ccccc1S(=O)(=O)NC(=O)Nc1nc(C)cc(C)n1 [sulfometuron methyl]	–	–	–	–	about 70%	about 80%	severely inhibited

— patent publication US10174331B2, “Methods and compositions for nuclease-mediated targeted integration of transgenes” (Sangamo BioSciences, Inc., priority 2012, dated 2019)
